Experiments:
[1] = target: full length AKT1 (Homo sapiens, UniProt P31749); assay: Biochemical kinase assay
[2] = target: full length AKT2 (Homo sapiens, UniProt P31751); assay: Biochemical kinase assay
[3] = target: AKT3 (Homo sapiens, UniProt Q9Y243); assay: Biochemical kinase assay
[4] = system: mutated forms of all three AKT isoforms containing inactive pleckstrin homology (PH) domains; assay: Biochemical kinase assay, PH-domain mutants
[5] = target: AKT1 (Homo sapiens, UniProt P31749); assay: Panel of 450 kinases; format: biochemical
[6] = target: PDK1 (Homo sapiens, UniProt O15530); assay: Panel of 450 kinases and 10-point titration curve; format: biochemical
[7] = target: Kv1.5 (Homo sapiens, UniProt P22460); assay: Cardiac ion channel profile; format: cell-based
[8] = system: AVM formation in Eng-iKO mice; assay: Prevention of AVM formation in Eng-iKO mice (retinal vascular network); format: in vivo, mouse
Description: The Eng Flox/flox; cdh5-CreERT2 were injected with tamoxifen (50 μg) at P2 to […] once at P3, P4, P5 and P6. The same volume of vehicle was injected serving as control animals. Mice were then euthanized at P7 and retinas processed for immunofluorescence staining as described (Lebrin et al., as above).
The same volume of vehicle was injected serving as control animals. Mice were then euthanized at P7 and retinas processed for immunofluorescence staining as described (Lebrin et al., as above).
For the retinal vascular network, quantification of the number of AV shunts per mouse was done manually. […] A custom own-lab made macro allowed automatic processing of the images, using the same processing and quantification parameters. Briefly, the brightness of the images was enhanced by modifying the pixel extreme values, which depends on the specific image histogram content. A Gaussian filter was applied to reduce the intensity in homogeneities. The filter order depended on the image resolution. Next, the threshold step was computed, based on a global threshold technique such as Otsu's method or Li's method, resulting in binary image. A median filter was then applied to eliminate potential local irregularities, which could cause false branching point detection. From the binary images, the vascular density was quantified (calculated as the ratio of pixels associated with the vessels divided by the total number of pixels in the image). For the other parameters, a skeleton of the images was first computed using ImageJ, then the total vascular length was quantified using the Measure Skeleton Length plug-in from ImageJ. The number of branch points was extracted from the Analyze Skeleton plug-in of ImageJ. All results were transferred to Microsoft Office Excel software and automatically rearranged using a lab custom-made program. As all images generated at each step of the processing were saved, a visual control was made to ensure that there were no aberrant results.
Statistical analysis was performed with Prism 7 software (GraphPad). For most of the experiments, 1-way ANOVA was used for multiple comparisons. Results are expressed as mean±SEM. For post hoc pairwise, the Dunnett's test was used. A value of *P<0.05, **P<0.01, ***P<0.001 or ****P<0.0001 denotes statistical significance. An in-group variation of around 15% in parameters related to blood vessel architecture changes has been previously observed by the inventors, therefore a difference between controls and mutant mice of around 20-30% was anticipated. It was therefore expected that a group of 8 mice per condition would reveal statistical differences.
Eyes were fixed in 4% paraformaldehyde (PFA) in PBS at room temperature for 10 min, retinas were dissected, post-fixed in 4% PFA in PBS at 4° C. overnight then processed for immunostaining. Retinas were permeabilized in PBS, 1% BSA and 0.5% Triton X-100 at 4° C. overnight, rinsed in PBS, washed twice in PBlec (PBS, pH 6.8, 1% Triton-X-100, 0.1 mM CaCl2, 0.1 mM MgCl2, 0.1 mM MnCl2), and then incubated in biotinylated Griffonia simplicifolia lectin (isolectin B4) (B-1205, Vector Laboratories, 1:50) in PBlec at 4° C. overnight. After 5 washes in PBS, samples were incubated with streptavidin Cy-3 (PA43001, Sigma-Aldrich, 1:100) and with a-SMA (clone 1A4) (F3777, Sigma-Aldrich) conjugated with FITC diluted in PBS, 0.5% BSA, and 0.25% X-100 at 4° C. for 2 h. After washing, flat whole-mount retinas were mounted in DAKO medium (S3023, Dako). Complete high-resolution 3-dimensional rendering of whole-mount retinas was acquired using Laser Scanning Microscope SP5 or SP8 (Leica).

[9] = system: AKT; assay: AKT inhibition in primary lung endothelial cells with complete loss of Eng expression (western blot); format: cell-based; conditions: Endothelial cell; lung mouse endothelial cells with complete loss of Eng expression; VEGF-A stimulation
[10] = target: T1, CCR1 (Homo sapiens, UniProt P32246); assay: Millipore Drug Discovery Safety and Liability Panel; format: cell-based
T1 construct: purchased Millipore

[11] = target: T2, CRF1 (Homo sapiens, UniProt P34998); assay: as above; format: cell-based
T2 construct: purchased Millipore

[12] = target: T3, ETA (Homo sapiens, UniProt P25101); assay: as above; format: cell-based
T3 construct: purchased Millipore

[13] = target: T4, FP (Homo sapiens, UniProt P43088); assay: as above; format: cell-based
T4 construct: purchased Millipore

[14] = target: T5, Motilin (Homo sapiens, UniProt O43193); assay: as above; format: cell-based
T5 construct: purchased Millipore

[15] = target: T6, PRP (Homo sapiens, UniProt P49683); assay: as above; format: cell-based
T6 construct: Millipore

[16] = target: T7, VPAC1 (Homo sapiens, UniProt P32241); assay: as above; format: cell-based
T7 construct: Millipore

[17] = target: T8, Y2 (Homo sapiens, UniProt P49146); assay: as above; format: cell-based
T8 construct: Millipore

[18] = read-out: ANTAGONIST mean % inhibition
[19] = read-out: AGONIST mean % increase in activity

Sequence of AKT3 (Q9Y243 whole entry, canonical isoform): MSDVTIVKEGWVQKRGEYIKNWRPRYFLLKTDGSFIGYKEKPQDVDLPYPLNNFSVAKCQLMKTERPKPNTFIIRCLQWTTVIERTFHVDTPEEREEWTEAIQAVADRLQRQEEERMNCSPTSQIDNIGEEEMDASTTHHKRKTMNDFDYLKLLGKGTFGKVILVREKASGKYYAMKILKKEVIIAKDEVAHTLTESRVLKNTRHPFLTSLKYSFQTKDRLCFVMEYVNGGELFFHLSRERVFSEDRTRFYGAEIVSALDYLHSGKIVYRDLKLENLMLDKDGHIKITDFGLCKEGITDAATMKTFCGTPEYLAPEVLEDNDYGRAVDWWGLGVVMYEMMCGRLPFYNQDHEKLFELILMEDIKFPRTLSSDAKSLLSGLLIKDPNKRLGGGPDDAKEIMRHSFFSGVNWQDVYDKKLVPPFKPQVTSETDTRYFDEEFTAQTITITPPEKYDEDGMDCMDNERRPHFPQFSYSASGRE
T2 sequence (P34998 24-415): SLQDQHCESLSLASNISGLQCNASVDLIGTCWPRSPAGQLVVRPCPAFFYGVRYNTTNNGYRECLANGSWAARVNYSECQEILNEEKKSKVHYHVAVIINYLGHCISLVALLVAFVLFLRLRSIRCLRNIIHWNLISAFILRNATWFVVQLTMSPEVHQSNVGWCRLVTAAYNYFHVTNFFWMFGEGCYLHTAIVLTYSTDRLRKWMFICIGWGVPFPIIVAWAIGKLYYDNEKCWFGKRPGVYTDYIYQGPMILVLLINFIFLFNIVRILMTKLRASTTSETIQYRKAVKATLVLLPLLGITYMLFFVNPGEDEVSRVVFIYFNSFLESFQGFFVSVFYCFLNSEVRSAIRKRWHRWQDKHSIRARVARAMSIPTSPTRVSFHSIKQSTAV
T1 sequence (P32246 whole entry): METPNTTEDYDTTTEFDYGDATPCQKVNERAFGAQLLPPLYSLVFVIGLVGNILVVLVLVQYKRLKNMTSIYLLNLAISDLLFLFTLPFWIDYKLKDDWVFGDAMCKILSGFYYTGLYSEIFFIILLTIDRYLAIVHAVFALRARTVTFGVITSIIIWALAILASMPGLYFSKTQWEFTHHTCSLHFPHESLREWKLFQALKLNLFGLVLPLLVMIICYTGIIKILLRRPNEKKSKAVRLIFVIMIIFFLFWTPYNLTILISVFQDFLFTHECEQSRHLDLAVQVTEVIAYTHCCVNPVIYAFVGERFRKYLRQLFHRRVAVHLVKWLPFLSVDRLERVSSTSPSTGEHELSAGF
T6 sequence (P49683 whole entry): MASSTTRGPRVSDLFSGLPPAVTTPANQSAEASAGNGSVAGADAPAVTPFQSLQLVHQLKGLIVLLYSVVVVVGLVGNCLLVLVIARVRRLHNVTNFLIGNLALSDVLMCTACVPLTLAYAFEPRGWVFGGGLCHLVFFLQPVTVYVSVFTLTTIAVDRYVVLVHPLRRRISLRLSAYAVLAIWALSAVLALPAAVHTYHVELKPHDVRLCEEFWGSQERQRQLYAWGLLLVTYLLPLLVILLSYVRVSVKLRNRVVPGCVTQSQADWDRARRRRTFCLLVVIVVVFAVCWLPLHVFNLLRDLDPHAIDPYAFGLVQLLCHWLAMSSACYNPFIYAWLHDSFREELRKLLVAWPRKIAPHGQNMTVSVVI
T8 sequence (P49146 whole entry): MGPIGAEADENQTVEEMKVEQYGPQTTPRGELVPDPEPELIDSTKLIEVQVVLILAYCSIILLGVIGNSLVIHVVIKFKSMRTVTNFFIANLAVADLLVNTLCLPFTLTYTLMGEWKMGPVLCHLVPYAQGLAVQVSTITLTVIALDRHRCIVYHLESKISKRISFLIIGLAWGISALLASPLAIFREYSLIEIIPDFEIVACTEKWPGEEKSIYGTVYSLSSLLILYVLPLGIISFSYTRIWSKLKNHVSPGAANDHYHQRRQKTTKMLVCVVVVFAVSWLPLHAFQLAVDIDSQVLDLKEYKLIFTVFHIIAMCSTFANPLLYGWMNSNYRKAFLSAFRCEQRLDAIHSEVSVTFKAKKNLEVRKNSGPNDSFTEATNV
T3 sequence (P25101 21-427): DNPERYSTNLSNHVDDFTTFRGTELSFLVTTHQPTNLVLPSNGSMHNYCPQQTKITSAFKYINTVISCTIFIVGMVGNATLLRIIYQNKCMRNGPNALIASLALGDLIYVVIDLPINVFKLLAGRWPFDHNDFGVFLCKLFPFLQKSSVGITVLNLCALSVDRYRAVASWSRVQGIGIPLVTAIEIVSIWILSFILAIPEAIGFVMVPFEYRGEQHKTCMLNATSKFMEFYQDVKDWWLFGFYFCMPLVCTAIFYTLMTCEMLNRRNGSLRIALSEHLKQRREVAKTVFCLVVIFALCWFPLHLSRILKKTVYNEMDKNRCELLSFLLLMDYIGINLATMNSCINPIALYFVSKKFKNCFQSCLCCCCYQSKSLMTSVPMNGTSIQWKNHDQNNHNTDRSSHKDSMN
T5 sequence (O43193 whole entry): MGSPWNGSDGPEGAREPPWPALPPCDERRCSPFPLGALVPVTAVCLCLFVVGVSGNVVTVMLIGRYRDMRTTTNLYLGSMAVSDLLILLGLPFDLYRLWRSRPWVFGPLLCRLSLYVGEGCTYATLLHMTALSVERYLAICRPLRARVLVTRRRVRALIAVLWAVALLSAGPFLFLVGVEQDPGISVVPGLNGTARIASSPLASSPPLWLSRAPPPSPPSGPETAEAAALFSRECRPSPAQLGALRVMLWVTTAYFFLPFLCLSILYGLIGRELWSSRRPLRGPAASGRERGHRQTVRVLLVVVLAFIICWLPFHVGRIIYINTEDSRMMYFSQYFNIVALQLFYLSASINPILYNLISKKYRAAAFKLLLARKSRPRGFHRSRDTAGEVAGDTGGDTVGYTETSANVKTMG
T7 sequence (P32241 31-457): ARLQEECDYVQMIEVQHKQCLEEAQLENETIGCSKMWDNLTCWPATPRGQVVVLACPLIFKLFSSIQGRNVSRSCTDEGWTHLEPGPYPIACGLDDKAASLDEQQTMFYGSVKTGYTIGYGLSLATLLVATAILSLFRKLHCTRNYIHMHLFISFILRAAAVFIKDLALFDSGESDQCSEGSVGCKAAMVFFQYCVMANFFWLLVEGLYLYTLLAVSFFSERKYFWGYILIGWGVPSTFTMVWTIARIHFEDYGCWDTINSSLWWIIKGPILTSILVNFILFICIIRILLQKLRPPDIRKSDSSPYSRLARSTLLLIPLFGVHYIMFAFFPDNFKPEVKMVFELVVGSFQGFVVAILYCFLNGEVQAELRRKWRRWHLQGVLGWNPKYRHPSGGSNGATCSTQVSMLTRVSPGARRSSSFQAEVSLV
T4 sequence (P43088 whole entry): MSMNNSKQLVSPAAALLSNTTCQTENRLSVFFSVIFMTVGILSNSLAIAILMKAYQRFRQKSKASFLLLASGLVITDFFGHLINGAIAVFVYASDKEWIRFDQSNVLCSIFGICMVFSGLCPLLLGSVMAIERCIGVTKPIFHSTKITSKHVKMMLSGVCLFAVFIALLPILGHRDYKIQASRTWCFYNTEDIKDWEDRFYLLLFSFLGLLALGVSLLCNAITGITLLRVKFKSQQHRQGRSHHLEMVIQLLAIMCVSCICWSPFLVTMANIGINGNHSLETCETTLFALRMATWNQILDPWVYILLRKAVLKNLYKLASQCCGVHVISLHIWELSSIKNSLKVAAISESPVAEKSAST
Sequence of PDK1 (O15530 whole entry): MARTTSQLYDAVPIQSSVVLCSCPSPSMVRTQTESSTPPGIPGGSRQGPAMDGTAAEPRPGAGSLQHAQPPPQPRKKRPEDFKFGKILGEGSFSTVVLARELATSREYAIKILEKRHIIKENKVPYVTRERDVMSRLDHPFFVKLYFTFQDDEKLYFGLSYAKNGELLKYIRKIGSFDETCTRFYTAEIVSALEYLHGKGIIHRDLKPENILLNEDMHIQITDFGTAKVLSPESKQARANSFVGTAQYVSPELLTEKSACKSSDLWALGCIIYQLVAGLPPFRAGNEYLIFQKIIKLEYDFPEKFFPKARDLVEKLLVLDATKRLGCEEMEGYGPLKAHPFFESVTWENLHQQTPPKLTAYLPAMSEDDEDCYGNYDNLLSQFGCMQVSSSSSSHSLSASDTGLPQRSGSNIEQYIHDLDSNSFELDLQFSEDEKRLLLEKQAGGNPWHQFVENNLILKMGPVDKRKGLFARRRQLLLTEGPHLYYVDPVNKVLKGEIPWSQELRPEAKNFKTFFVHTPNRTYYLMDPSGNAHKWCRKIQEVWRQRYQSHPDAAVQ
Sequence of Kv1.5 (P22460 whole entry): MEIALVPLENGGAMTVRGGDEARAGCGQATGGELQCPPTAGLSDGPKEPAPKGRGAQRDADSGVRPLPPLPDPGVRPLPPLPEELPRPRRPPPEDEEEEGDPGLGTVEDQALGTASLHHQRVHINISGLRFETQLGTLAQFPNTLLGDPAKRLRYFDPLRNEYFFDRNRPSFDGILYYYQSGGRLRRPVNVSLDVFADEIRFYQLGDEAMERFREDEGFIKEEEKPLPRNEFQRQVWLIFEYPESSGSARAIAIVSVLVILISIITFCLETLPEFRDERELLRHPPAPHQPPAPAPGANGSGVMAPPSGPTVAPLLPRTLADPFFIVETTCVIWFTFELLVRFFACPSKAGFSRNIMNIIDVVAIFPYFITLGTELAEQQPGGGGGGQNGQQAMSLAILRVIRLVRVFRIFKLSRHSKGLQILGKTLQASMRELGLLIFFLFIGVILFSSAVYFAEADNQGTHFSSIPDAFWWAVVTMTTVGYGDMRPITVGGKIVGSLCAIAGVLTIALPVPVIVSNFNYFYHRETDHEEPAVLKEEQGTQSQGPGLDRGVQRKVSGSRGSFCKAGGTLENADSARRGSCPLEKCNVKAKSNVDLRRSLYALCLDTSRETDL

CCN1C(=O)COc2nc(-c3ccc(C4(N)CC(O)C4)cc3)c(-c3ccccc3)cc21.O=C(O)C(O)C(O)C(=O)O [VAD044, 6-(4-(1-amino-3-hydroxycyclobutyl)phenyl)-1-ethyl-7-phenyl-1H-pyrido[2,3-b][1,4]oxazin-2(3H)-one L-tartrate]
IC50 [1]: 125 nM
IC50 [2]: 95 nM
IC50 [3]: > 500 nM
EC50 ([3]; read-out: EC50 value for the AKT3 isoform): > 500 nM
inhibition of mutated AKT forms [4]: not inhibited
inhibition at 10 µM [5]: 89%
inhibition at 10 µM ([6]; 10 μM): 77%
IC50 ([6]; 10-point titration curve): > 10000 nM
inhibition at 10 µM [7]: < 25%
prevention of AVM shunt formation ([8]; 2.5 mg·kg−1): fully prevent AVM shunt formation
density of the retinal vascular network ([8]; Eng-iKO mice): normalize the density
number of branch points of the Eng-iKO vascular network ([8]; Eng-iKO mice): slightly reducing
radial expansion of the Eng-iKO vascular network ([8]; Eng-iKO mice): slightly reducing
prevention of AV shunt formation ([8]; Eng-iKO mice, 1.25 mg·kg-1): not to be effective
prevention of AV shunt formation ([8]; Eng-iKO mice, 2.5 mg·kg-1 and above, at P3 and P5): efficiently prevented AV shunt formation
minimal effective dose ([8]; HHT1 (Eng-iKO) mouse model): 2.5 mg/kg
IC50 [9]: 93 nM
activation at 10 µM ([10]; CCR1, 10 μM, read-out: AGONIST mean % increase in activity): 0.2%
inhibition at 10 µM [10, 18]: 9.5%
activation at 10 µM ([11]; CRF1, 10 μM, read-out: AGONIST mean % increase in activity): 0%
inhibition at 10 µM [11, 18]: 2.3%
activation at 10 µM ([12]; ETA, 10 μM, read-out: AGONIST mean % increase in activity): -0.4%
inhibition at 10 µM [12, 18]: 10.5%
activation at 10 µM ([13]; FP, 10 μM, read-out: AGONIST mean % increase in activity): -0.7%
inhibition at 10 µM [13, 18]: 13.6%
activation at 10 µM [14, 19]: -0.3%
inhibition at 10 µM [14, 18]: 50%
activation at 10 µM [15, 19]: -0.5%
inhibition at 10 µM [15, 18]: 23.2%
activation at 10 µM ([16]; VPAC1, 10 μM, read-out: AGONIST mean % increase in activity): -0.7%
inhibition at 10 µM [16, 18]: 8.5%
activation at 10 µM ([17]; Y2, 10 μM, read-out: AGONIST mean % increase in activity): -2.2%
inhibition at 10 µM [17, 18]: -5.7%

Reference: patent US12466839B2, “Allosteric AKT inhibitors for use in the treatment of Hereditary Hemorrhagic Telangiectasia” (VADERIS THERAPEUTICS AG, priority 2020, dated 2025)
